Assay results from US20220400729A1, “SYNERGISTIC COMBINATION OF BUTYRIC-ACID-PRODUCING PREBIOTICS AND PROBIOTICS” (INNER MONGOLIA YILI INDUSTRIAL GROUP CO., LTD, priority 2019, published 2022).

System: Bifidobacterium lactis HNO19
Test: Growth test of Bifidobacterium lactis HNO19: organic acids in culture broth by HPLC
Type: cell-based
Settings: HNO19 in MRS+0.05% cysteine medium with 1% carbon source, HPLC at 12 hours
Method: Bifidobacterium lactis HNO19 was purchased from Danisco. The strain was cultured in de Man Rogosa Sharpe (MRS) broth (Difco, Detroit, Md.) supplemented with 0.5 g/LL-cysteine and incubated for 24 h at 37° C. under anaerobic conditions. […] After the second passage, the culture was prepared for use as inoculum for the growth tests described below. Various carbon source stock solutions were sterilized by passing through 0.22 micron filters and used at 1% final concentration. […] The contents of lactic acid, acetic acid, propionic acid and butyric acid in the above-mentioned various combined culture broths were measured by high performance liquid chromatography (HPLC) at 12 hours.

SMILES: OC[C@H]1O[C@@H](O[C@@H]2[C@@H](CO)O[C@](O)(CO)[C@H]2O)[C@H](O)[C@@H](O)[C@H]1O [LOS, 4-O-β-D-galactopyranosyl-4-D-fructose]
- Contents of organic acids in the culture medium: Acetic acid: 0.238 ± 0.002
- Contents of organic acids in the culture medium: Lactic acid: 0.034 ± 0.002
- Contents of organic acids in the culture medium: Total amount of organic acid: 0.272 ± 0.004
